The text below walks through data of article PMC12406203 (Journal of Medicinal Chemistry, 2025).

Series [1] concerns the target hAChE (Homo sapiens, UniProt P22303). The following applies: residual activity at 100 μM; mean ± SD, one experiment in triplicate.
Series [2] deals with hBChE (Homo sapiens, UniProt P06276). The following applies: residual activity at 100 μM; mean ± SD, one experiment in triplicate.
Method: The inhibitory potencies of the compounds against the ChEs were determined using the method of Ellman. […] The final content of DMSO was always 1% [v/v]. […] The initial velocities in the presence (v i ) and absence (v 0) of the test compounds were calculated. The inhibitory potencies were expressed as the residual activities, according to RA = (v i – b)/(v 0 – b), where b is the blank value using phosphate buffer without ChEs. For IC50 determinations, at least seven different concentrations for each compound were used. The IC50 values were obtained by plotting the residual ChE activities against the applied inhibitor concentrations, with the experimental data fitted to a four-parameter logistic function (GraphPad Prism 10.0).
Series [3] concerns hAChE.
Series [4] deals with human p38α MAPK (Homo sapiens, UniProt Q16539). The following applies: residual activity at 100 μM; mean ± SD, one experiment in triplicate.
human p38α MAPK, sequence (Q16539 whole entry): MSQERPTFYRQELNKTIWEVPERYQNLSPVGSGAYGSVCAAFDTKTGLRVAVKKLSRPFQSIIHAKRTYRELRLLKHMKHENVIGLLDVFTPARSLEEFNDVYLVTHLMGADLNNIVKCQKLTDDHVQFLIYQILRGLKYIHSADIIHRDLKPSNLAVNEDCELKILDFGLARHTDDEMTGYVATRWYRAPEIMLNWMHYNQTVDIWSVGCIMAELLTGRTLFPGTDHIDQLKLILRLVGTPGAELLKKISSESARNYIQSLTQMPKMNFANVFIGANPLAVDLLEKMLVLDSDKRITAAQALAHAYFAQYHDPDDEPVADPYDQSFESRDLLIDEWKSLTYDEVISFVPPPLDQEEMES
Method: The inhibitory activities against human p38α MAPK were evaluated using the commercially available ADP-Glo Kinase Assay (Promega, Inc., USA).
For the reference sample, 1% [v/v] DMSO replaced the inhibitor solution. […] The enzyme reaction was started with the addition of the enzyme solution. The DMSO concentration in the test solution was maintained at 1% [v/v]. The plate was incubated for 60 min. Then 5 μL of ADP-Glo reagent was added, followed by a 40 min incubation at room temperature. […] All incubations were performed at room temperature. The RA and IC50 values were calculated as described above (ChEs inhibitory potency).
Series [5] concerns p38α MAPK.
Series [6] relates to hBChE.
For series [7], the system named is scopolamine-induced cognitive deficits in mice. Put plainly: Novel object recognition task, scopolamine-induced amnesia. To be noted: 1, 10, and 30 mg/kg i.p.; scopolamine model. Type of series: in vivo.
From the text: (§1) In the scopolamine model, the PA and NOR tasks were used for dose selection for further testing.
The mice had unlimited access to food and water prior to the experiment. Specified conditions for the maintenance of mice were ensured throughout the experiment, including tree bedding (Transwior, Poland) and cage enrichment (tunnels, nesting material, wooden igloos, etc.). For behavioral tests, the mice were selected randomly; each group consisted of 7–10 mice. […] The procedures for maintenance and treatment of laboratory animals were approved by the first Local Ethics Committee in Krakow (Approval No. 645/2022, 760/2023, and 829/2024 and the treatment of animals was in full accordance with ethical standards laid down in respective Polish and EU regulations (Directive 2010/63/EU).
(§2) Scopolamine hydrobromide (Sigma-Aldrich, Poland) at the dose of 1 mg/kg was used to induce learning and memory deficits. For the in vivo tests, scopolamine was prepared in distilled water (Polfa Kutno, Poland) and was administered subcutaneously (s.c.) 30 min before behavioral tests during the acquisition (training) trial of PA and NOR tasks. […] They were administered intraperitoneally (i.p.) 60 min before the acquisition trial of the PA, NOR, and MWM tasks.
The experiment was conducted in opaque black boxes with dimensions of 50 × 50 × 50 cm. The 3 day procedure consists of habituation to the test arena (without any objects) for 10 min on the first day (T0), a training trial (T1), and a testing trial (T2) separated by a 24 h intertrial interval. During T1 (familiarization trial), two identical objects (A and B) were presented in the opposite corners of the arena, approximately 5 cm from its walls. During T2 (recognition trial), one of the objects (B) was replaced by a novel object (C), so that the animals were presented with A (familiar) and C (novel) objects. Both T1 and T2 trials lasted for 10 min, and after each trial, the animals returned to their home cages. White plastic round containers (height 5 cm, diameter 5 cm) attached to the ground with double-sided tape were used as the A, B objects, and green cuboids of similar height were used as object C. The objects were stable enough so that the animals could not displace them. The sequence of presentations and the location of the objects were randomly assigned to each mouse. The animals explored the objects by looking, licking, sniffing, or touching them while sniffing, but not when leaning against, standing, or sitting on the objects. Any mouse exploring the two objects for less than 5 s within the 10 min duration of T1 or T2 was eliminated from the study. An experimenter, blind to the drug treatment, measured the exploration time of the objects.
A short description of series [8]: Pharmacokinetic study in mice.
Method: In this study, male CD-1 mice weighing 27–34 g housed in conditions of constant temperature with a 12:12 h light-dark cycle with free access to food and water were used. Both tested and reference compounds were suspended in 1% Tween in water for injection (Polpharma, Poland) and administered intraperitoneally (i.p.). The mice were sacrificed by decapitation under isoflurane anesthesia at different time points following compound administration. Brains were harvested at the same time points. Blood was allowed to clot at room temperature for 20 min, and serum was separated by centrifugation at 8 000g (Eppendorf MiniSpin centrifuge, Germany) for 10 min. All samples were stored at −80 °C until analysis.
The analytical workflow employed a Sciex QTRAP 4500 triple quadrupole mass spectrometer interfaced with an Exion LC AC HPLC system (Danaher Corporation, USA). Chromatographic separation was achieved on an XBridge C18 column (3 × 50 mm, 5 μm; Waters, USA), utilizing a mobile phase composed of acetonitrile and water both containing 0.1% formic acid. The column temperature was maintained at 40 °C, and a gradient elution protocol (Table S10) was implemented to ensure optimal analyte resolution and retention times. Mass spectrometric detection was conducted in unit resolution mode, with ion transitions specified in Table S11. […] Valsartan served as the internal standard and was monitored at m/z 436 → 207 (collision energy = 42 eV). Positive electrospray ionization (ESI+) was employed to enhance detection sensitivity. Ion path parameters (Table S11) were optimized via direct infusion of analyte solutions (7 μL/min) using a syringe pump. The optimized source conditions included an ion spray voltage of 5500 V, a source temperature of 450 °C, curtain gas pressure at 20 psi, and medium collision gas pressure. […] No significant matrix effects or stability concerns were observed during routine sample analysis. Data acquisition and processing were carried out using Analyst software version 1.7.
Serial dilutions were performed to generate working solutions ranging from 0.01 to 20 μg/mL, corresponding to final calibration concentrations of 0.001–2 μg/mL. For calibration curve construction, 5 μL of each working solution was spiked into 45 μL of the relevant biological matrix (serum or brain homogenate) and vortexed for 10 s. Sample preparation involved protein precipitation, in a 1:3 (v/v) ratio, using acetonitrile containing 0.1% formic acid and the internal standard. The mixtures were agitated for 10 min using an IKA Vibrax VXR shaker (Germany), followed by centrifugation at 8000 × g for 5 min (Eppendorf miniSpin, Germany). The resulting supernatants were transferred to chromatographic vials for analysis.
Brain tissues were homogenized in distilled water at a 1:4 (w/v) ratio using an ULTRA-TURRAX T10 basic homogenizer (IKA, Germany). Aliquots of brain homogenate or serum (50 μL) were subjected to protein precipitation in a 1:3 (v/v) ratio with acetonitrile containing 0.1% formic acid and the internal standard. The mixtures were agitated for 10 min using an IKA Vibrax VXR shaker (Germany), followed by centrifugation at 8000 × g for 5 min (Eppendorf miniSpin, Germany). The resulting supernatants were directly transferred to chromatographic vials for analysis. In cases where analyte concentrations in serum exceeded 20 μg/mL, samples were diluted with blank matrix prior to the deproteinization step. The autosampler was maintained at 15 °C, and a 1 μL aliquot was injected onto the analytical column.
Pharmacokinetic parameters were estimated using the noncompartmental analysis (NCA). The maximum concentration (C max) and the time to reach maximum concentration (t max) in serum and brain were obtained directly from the concentration versus time data.
Series [9] has as its system mice (motor coordination). Put plainly: Rotarod test. The following applies: 6, 18, and 24 rpm; all mice of the group.
Method: For behavioral tests, the mice were selected randomly; each group consisted of 7–10 mice.
In the rotarod, locomotor activity, and MWM tests, only one dose effective in the scopolamine model of amnesia was evaluated.
Three days before the rotarod test, the mice were trained on the rotarod apparatus (Rotarod apparatus, May Commat RR0711, Turkey; rod diameter: 2 cm) that was rotated at a fixed speed of 18 rpm. In each training session, the mice were placed on the rotating rod for 3 min with an unlimited number of trials. The proper experiment was performed 24 h after the last training trial. […] Motor impairments in mice were defined as the inability to remain on the rotarod apparatus for 1 min. The results are expressed as the mean time spent on the rotarod.
The test system of series [10] is LPS-treated mice. Put plainly: Morris water maze task, LPS model of neuroinflammation. The format is in vivo.
Method: The compounds were administered for 10 consecutive days, and on the last 6 days of their administration, LPS was also administered intraperitoneally 5 h before the test compounds. On these 6 days, the acquisition phase of the MWM task was performed. One day later, the retention, drug-off trial of the MWM task was carried out.
In the LPS model adult male C57BL/6J mice (Animal Breeding Farm of the Faculty of Pharmacy, Jagiellonian University Medical College) of similar weight and age were used. […] The mice had unlimited access to food and water prior to the experiment. Specified conditions for the maintenance of mice were ensured throughout the experiment, including tree bedding (Transwior, Poland) and cage enrichment (tunnels, nesting material, wooden igloos, etc.). For behavioral tests, the mice were selected randomly; each group consisted of 7–10 mice. […] After in vivo tests, the animals were immediately euthanized, and their tissues were collected and stored for further ex vivo testing.
LPS (Lipopolysaccharide from Escherichia coli O111:B4, Sigma-Aldrich, Poland) was used to induce neuroinflammation in mice. […] They were administered intraperitoneally (i.p.) 60 min before the acquisition trial of the PA, NOR, and MWM tasks. […] In the rotarod, locomotor activity, and MWM tests, only one dose effective in the scopolamine model of amnesia was evaluated.
The Morris water maze is a circular, plastic, and gray-painted pool (120 cm in diameter and 60 cm in height), filled with water (up to about 48 cm below the edge to prevent an animal from jumping out), maintained at 23 ± 1 °C. The pool was divided into four equal quadrants (compass locations: NE, NW, SE, SW) by a computerized video tracking system (SMART, ver. 3.0; Panlab, Spain). An escape platform (11 cm in diameter and 47 cm in height) at a fixed location (the center of the NW quadrant, i.e., the target quadrant) was made of transparent Plexiglas, being invisible to the swimming animal, and was immersed 1 cm under the surface of water. The maze was lighted with an intensity of 45 lx. […] The time taken to reach the hidden platform (escape latency) on days 1–6 was recorded for each mouse and analyzed. Each animal was released from a different starting point and was allowed to swim for 60 s. […] On the seventh day (a drug-off trial conducted 24 h after the last training trial), the platform was removed from the pool, and a probe trial was performed (without drug treatmentassessment of memory retention).
In series [11] the test system is mice (locomotor activity). Put plainly: Locomotor activity test. To be noted: 30 mg/kg, i.p., mean ± SEM.
From the text: The mice had unlimited access to food and water prior to the experiment. Specified conditions for the maintenance of mice were ensured throughout the experiment, including tree bedding (Transwior, Poland) and cage enrichment (tunnels, nesting material, wooden igloos, etc.). For behavioral tests, the mice were selected randomly; each group consisted of 7–10 mice. […] After in vivo tests, the animals were immediately euthanized, and their tissues were collected and stored for further ex vivo testing.
They were administered intraperitoneally (i.p.) 60 min before the acquisition trial of the PA, NOR, and MWM tasks.
The locomotor activity test was performed using activity cages (40 cm × 40 cm × 30 cm, supplied with IR beam emitters) (Activity Cage 7441, Ugo Basile, Italy) connected to a counter for the recording of light-beam interrupts. […] The animals’ movements (i.e., the number of light-beam crossings) were counted during the next 60 min of the test. Before the experiment, the mice were habituated to activity cages for 15 min.
Series [12] relates to scopolamine-induced cognitive deficits in mice. Put plainly: Passive avoidance task, scopolamine-induced amnesia. Type of series: in vivo. The following applies: 1–30 mg/kg i.p.
From the text: as §1
The mice had unlimited access to food and water prior to the experiment. Specified conditions for the maintenance of mice were ensured throughout the experiment, including tree bedding (Transwior, Poland) and cage enrichment (tunnels, nesting material, wooden igloos, etc.). For behavioral tests, the mice were selected randomly; each group consisted of 7–10 mice.
as §2
The PA apparatus (Panlab Harvard Apparatus, Spain) consists of a large white-colored illuminated compartment (26 cm × 26 cm × 34 cm) and a small black-colored compartment (13 cm × 7.5 cm × 7.5 cm), which are separated from each other by a guillotine gate (5 cm × 5 cm). The PA task is divided into two trials (i.e., the acquisition trial and the retention trial), each conducted 24 h apart. On the first day, during the acquisition trial (a conditioning phase), the test compounds (94 and 95, neflamapimod and vehicle) were injected. Also, before the acquisition trial, scopolamine or LPS was administered at selected time points. Then, each mouse was placed into the white compartment, and a 30 s habituation period began (guillotine gate is closed). After that, the guillotine gate was opened, and the mice were tested during the 180 s testing period. As soon as the mouse entered the black compartment of the PA device, the guillotine gate was closed and an electrical shock (intensity: 0.2 mA, duration: 2 s) was automatically applied through the grid floor. For each mouse, the latency between the opening of the guillotine gate and the mouse’s entering the black compartment was measured. On the next day, during the retention (drug-off) trial, the mice were placed again into the white compartment for a 30 s habituation period, and the latency to enter the black compartment was measured for each mouse.
Series [13] relates to PBMCs. Put plainly: Cytokine release from PHA-stimulated PBMCs. Type of series: cell-based, human. The following applies: 1, 2.5, and 5 μM, 18 h. As for the experimental part:
Human PBMCs from healthy donors were isolated from heparinized blood by density gradient centrifugation with Ficoll-Paque. The isolated cells were washed twice with PBS, resuspended in RPMI 1640 medium (Sigma-Aldrich, St. Louis, MO, USA) supplemented with 10% heat-inactivated fetal bovine serum (Gibco), 2 mM L-glutamine (Sigma-Aldrich), 100 U/mL penicillin (Sigma-Aldrich), and 100 μg/mL streptomycin (Sigma-Aldrich), and used in the assays.
Peripheral blood mononuclear cells were seeded (500,000 cells/well) in 24-well plates in 500 μL of growth medium and treated with compounds 94, 95, and neflamapimod (1, 2.5, and 5 μM) in the presence or absence of PHA (1 μg/mL) or the corresponding vehicle (0.1% DMSO). Cell-free supernatants were collected after 18 h of incubation (37 °C, 5% CO2) and stored at −80 °C until tested. Cytokine production was determined with BD Cytometric Bead Array human inflammatory cytokines kit (BD Bioscience) on an Attune NxT flow cytometer (Thermo Fisher Scientific, Waltham, MA, USA). Standard curves were generated using recombinant cytokines contained in the kit. The data were analyzed using the FlowJo (Tree Star, Inc., Ashland, OR, USA) and Prism (GraphPad Prism 6.0, GraphPad Software) software.

Setting [14] is: brain, neflamapimod 30 mg/kg i.p., mice.
[15] abbreviates: male, CD-1, mouse, brain, ip, 30 mg/kg.
Setting [16] is: male, CD-1, mouse, serum, ip, 30 mg/kg.
[17] abbreviates: 10 mg/kg i.p., p < 0.05 vs LPS-treated control.

Each structure is given as a SMILES string. “And” between values parts separate entries of the source, which are not always exact repeats. Identical values can stand only once.

hBChE (Homo sapiens, UniProt P06276), sequence (P06276 29-602): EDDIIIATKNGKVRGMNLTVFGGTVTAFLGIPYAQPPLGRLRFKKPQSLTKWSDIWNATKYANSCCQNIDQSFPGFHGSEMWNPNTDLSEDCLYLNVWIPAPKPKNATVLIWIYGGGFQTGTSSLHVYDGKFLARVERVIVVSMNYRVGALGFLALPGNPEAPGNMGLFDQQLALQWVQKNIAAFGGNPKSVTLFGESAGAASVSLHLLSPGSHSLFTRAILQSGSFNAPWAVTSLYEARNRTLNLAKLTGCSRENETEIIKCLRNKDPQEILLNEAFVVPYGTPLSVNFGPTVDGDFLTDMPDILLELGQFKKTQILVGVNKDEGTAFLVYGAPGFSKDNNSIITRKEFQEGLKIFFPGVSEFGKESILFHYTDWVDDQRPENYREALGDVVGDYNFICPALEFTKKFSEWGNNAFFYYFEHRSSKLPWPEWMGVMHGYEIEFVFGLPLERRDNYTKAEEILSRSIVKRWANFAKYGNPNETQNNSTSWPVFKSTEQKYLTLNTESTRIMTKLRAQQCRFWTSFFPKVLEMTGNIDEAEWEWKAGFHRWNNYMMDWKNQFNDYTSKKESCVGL
hAChE (Homo sapiens, UniProt P22303), sequence (P22303 32-614): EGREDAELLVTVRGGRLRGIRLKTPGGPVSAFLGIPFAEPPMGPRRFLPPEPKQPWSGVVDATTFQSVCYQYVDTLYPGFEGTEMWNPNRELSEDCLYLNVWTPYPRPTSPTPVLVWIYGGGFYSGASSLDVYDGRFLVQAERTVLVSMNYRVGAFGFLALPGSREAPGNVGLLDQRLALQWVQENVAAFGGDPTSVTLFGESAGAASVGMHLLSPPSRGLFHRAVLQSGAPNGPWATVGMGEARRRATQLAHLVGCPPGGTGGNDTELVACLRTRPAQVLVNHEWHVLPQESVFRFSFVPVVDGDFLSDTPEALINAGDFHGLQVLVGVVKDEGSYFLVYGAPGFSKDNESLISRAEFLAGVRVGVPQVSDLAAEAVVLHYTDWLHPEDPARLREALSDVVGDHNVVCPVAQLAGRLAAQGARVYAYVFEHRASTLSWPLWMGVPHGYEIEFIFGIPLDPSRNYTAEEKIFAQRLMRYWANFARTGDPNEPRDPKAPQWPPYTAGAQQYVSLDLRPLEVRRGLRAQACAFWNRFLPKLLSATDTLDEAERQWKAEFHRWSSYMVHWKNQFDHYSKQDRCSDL

As for `CC(C)Cn1ncc2cc(S(=O)(=O)c3ccc(F)cc3F)c(C(=O)NCCN(C)C)cc21` [Compound 93, 5-((2,4-Difluorophenyl)sulfonyl)-N-(2-(dimethylamino)ethyl)-1-isobutyl-1H-indazole-6-carboxamide], the “hAChE RA at 100 μM” value in [1] is 98.0% and 98.0 ± 2.7%. In series [2], the “hBChE RA at 100 μM” value is 77.6% and 77.6 ± 3.1%. The “RA at 100 µM” value in [3] stood at 98.0 ± 2.7%; in series [5], 5.9 ± 0.2%; in series [6], 77.6 ± 3.1%. In [4], the “p38α MAPK RA at 100 μM” value is listed as 5.9 ± 0.2%.

In the case of `O=c1ncn2nc(Sc3ccc(F)cc3F)ccc2c1-c1c(Cl)cccc1Cl` [neflamapimod, reference compound], in series [7], the “effect in NOR task” value was “did not reveal its memory-improving properties”. Besides, in [8] (setting [14]), the “AUC0-∞” value was 755355.60 ng·min/mL(g), the exposure AUC(0-t) was 566796.70 ng·min/mL(g) and the t0.5λz is on record as 1049.79 min. Moreover, in series [8] (setting [15]), the concentration peaked (Cmax) at 2290 ng/g, the MRT was 16.7 h, the Tmax was 15 min and the k el is 1.1e-05 s⁻¹. The compound also returned a Kp in [8] (male, CD-1, mouse, brain/serum, ip, 30 mg/kg) of 0.68. For the same compound, the half-life in [8] (male, CD-1, mouse, serum and brain, ip, 30 mg/kg) is around 1000 min. In series [8] (setting [16]), this compound gave an AUC(0-inf) of 18700 ng·h/mL, an AUC(0-t) of 14400 ng·h/mL, a CL/F of 27 mL/min/kg and a Cmax of 4090 ng/mL. In addition, in [8] (setting [16]), the MRT was 15.1 h, the Tmax is 15 min, the Vd/F came to 37.8 L/kg and the k el was 1.18e-05 s⁻¹. The t0.5λz in series [8] (serum, neflamapimod 30 mg/kg i.p., mice) is 978.45 min. Also, in [9], the “time spent on the rotarod” value turned out to be 60 s. In addition, in series [10] (setting [17]), the “time spent at the target zone (MWM day 7)” value is “increased” and the “time spent in the NW zone (MWM day 7)” value is “increased”. Besides, the “spatial learning, acquisition phase of MWM” value in [10] (10 and 30 mg/kg i.p., LPS-treated mice) is reported as “effective in improving spatial learning only on day 3”. Moreover, in series [11], the “number of light-beam crossings” value was determined as 2481 ± 195. In series [12], the “effect on scopolamine-induced memory decline in PA task” value was “did not confirm memory-improving properties”. Moreover, the “production of pro-inflammatory cytokines IL-8, IL-1β, IL-6, IL-10, and TNF-α” value in [13] is “significantly inhibited”.
